Patent US20240245694A1, “Tricyclic Compounds and their Uses” (Novartis AG, priority 2022, published 2024)

Biological target: WRN helicase (core helicase motif aa N517-P1238) (Homo sapiens (Human), UniProt Q14191)
Experiment: WRN ATPase assay (ADP-Glo), DNA dependent ATP hydrolysis
Type: biochemical
Conditions: 3 hours pre-incubation, 300 micromolar ATP, FLAP26 ssDNA; geometric means of at least 2 determinations
Summary of the method: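 Uses the WRN core helicase (aa N517-P1238) with single-strand 45-mer FLAP26 DNA in Tris pH 7.5, MgCl2, NaCl, BSA and pluronic buffer. Compound was pre-incubated 3 h with enzyme and ATP; reaction then run with 10 nM WRN, 0.2 nM FLAP26 and 300 µM ATP for 30 min at room temperature. ADP quantified by ADP-Glo luminescence; IC50 from duplicate 4-parameter fits, geometric mean of ≥2 runs.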

Sequence of WRN helicase (core helicase motif aa N517-P1238) (Q14191 517-1238): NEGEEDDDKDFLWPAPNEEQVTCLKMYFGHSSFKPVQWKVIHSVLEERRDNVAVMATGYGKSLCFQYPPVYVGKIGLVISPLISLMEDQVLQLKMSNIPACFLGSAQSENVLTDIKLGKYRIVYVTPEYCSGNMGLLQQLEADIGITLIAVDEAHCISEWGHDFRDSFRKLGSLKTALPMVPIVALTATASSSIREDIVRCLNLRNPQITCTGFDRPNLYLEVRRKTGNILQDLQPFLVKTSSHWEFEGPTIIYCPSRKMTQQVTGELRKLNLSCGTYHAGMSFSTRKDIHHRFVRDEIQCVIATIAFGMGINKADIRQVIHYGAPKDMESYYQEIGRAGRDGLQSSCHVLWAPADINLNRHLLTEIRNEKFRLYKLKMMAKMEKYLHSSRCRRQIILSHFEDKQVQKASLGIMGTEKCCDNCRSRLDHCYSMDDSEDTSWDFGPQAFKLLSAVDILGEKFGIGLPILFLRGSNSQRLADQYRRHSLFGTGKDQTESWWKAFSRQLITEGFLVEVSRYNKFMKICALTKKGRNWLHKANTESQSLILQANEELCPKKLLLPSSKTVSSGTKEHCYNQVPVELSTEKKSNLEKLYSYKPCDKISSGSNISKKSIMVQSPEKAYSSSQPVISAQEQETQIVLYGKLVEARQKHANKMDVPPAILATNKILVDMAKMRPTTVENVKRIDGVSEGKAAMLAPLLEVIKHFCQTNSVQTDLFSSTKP

Structure (SMILES) | IC50
Cc1ncnc(C(=O)N2CCN(c3c4n(c5nc(C6=CCOCC6)nn5c3=O)[C@@H](C(=O)Nc3ccc(C(F)(F)F)cc3Cl)C[C@H]4C)C[C@H]2C)c1O [Example 18A, (7R,9R)—N-(2-chloro-4-(trifluoromethyl)phenyl)-2-(3,6-dihydro-2H-pyran-4-yl)-6-((R)-4-(5-hydroxy-6-methylpyrimidine-4-carbonyl)-3-methylpiperazin-1-yl)-7-methyl-5-oxo-5,7,8,9-tetrahydropyrrolo[1,2-c][1,2,4]triazolo[1,5-a]pyrimidine-9-carboxamide] | 50 nM
Cc1ncnc(C(=O)N2CCN(c3c4n(c5nc(C6=CCOCC6)nn5c3=O)[C@@H](C(=O)Nc3ccc(C(F)(F)F)cc3Cl)C[C@H]4C)[C@H]3CC[C@@H]32)c1O [Example 21A, (7R,9R)—N-(2-chloro-4-(trifluoromethyl)phenyl)-2-(3,6-dihydro-2H-pyran-4-yl)-6-((1S,6S)-5-(5-hydroxy-6-methylpyrimidine-4-carbonyl)-2,5-diazabicyclo[4.2.0]octan-2-yl)-7-methyl-5-oxo-5,7,8,9-tetrahydropyrrolo[1,2-c][1,2,4]triazolo[1,5-a]pyrimidine-9-carboxamide] | 30 nM
